According to patent publication US11389452B2, “Methods for increasing blood plasma 2′-deoxyuridine (dUrd) and thymidylate synthase inhibition” (Isofol Medical AB, priority 2017, dated 2022):
Blank lines part the entries; values can stand above or below the molecule they belong to.

How the values were obtained:
colorectal cancer = details: cited from earlier work
TS = details: cited from earlier work
pancreas cancer = details: CoFactor combined with 5-FU, phase I/II trial; cited from earlier work
[1] = target: T1, thymidylate synthase (TS) (Homo sapiens, UniProt P04818); assay: Incremental plasma dUrd (surrogate marker of TS inhibition) 24 hours after bolus 5-FU plus folate in mCRC patients, by LC-MS/MS; format: in vivo; details: for Mean (t24 − t0) plasma dUrd: 24 hours
T1 construct: endogenous in cells; host or cells: patients with metastatic colorectal cancer (in vivo); plasma sampled
Procedure: The safety and efficacy of [6R]-5,10-methylenetetrahydrofolate ([6R]-MTHF) is analyzed in an open-label, multiple-site, Phase I/II Dose Cohort Trial (ISO-CC-005) in patients with stage IV colorectal cancer (mCRC) to determine the safe and tolerable i.v. bolus dose of 6R-MTHF in combination with standard doses of 5-FU (500 mg/m^2) alone or in combination with a fixed dose of Bevacizumab, Oxaliplatin or Irinotecan in patients with stage IV colorectal cancer. Among groups of patients (n≥3) ascending 6R-MTHF doses of 30-240 mg/m^2 BSA are being evaluated in the presence of various permutations of the cytotoxics, 5-FU alone or 5-FU plus oxaliplatin, bevacizumab or irinotecan given at standard dose levels. The study is expected to be completed by year end 2017. A summary of the study design and each study arm is depicted below in Table 1.
In Gothenburg, for almost two decades, clinical, treatment and outcomes data on all patients with CRC have been collected. Plasma and tissue samples have been stored in a biobank under appropriate physical conditions for long term storage. The database and the biobank operate under the auspices of the relevant ethical and regulatory permissions. Patients having been treated with the standard 5-FU dose, 500 mg/m^2 plus i.v. bolus LV, 60 mg/m^2 (equivalent to 30 mg/m^2 of LLV) were randomly drawn from the databank.
The present study is a historical group comparison study. All patients have been treated with a standard dose of 500 mg 5-FU given as a bolus injection plus the respective folate 6R-MTHF or LV also given as bolus injections.
All patients have been measured during two consecutive treatment cycles with 5-FU. Values for dUrd were measured immediately before injection of 5-FU (t0) and after 24 hours (t24). Mean values and standard deviations for differences between t24 and t0 were calculated for the patients on each dose level of 30 and 60 mg/m^2 6R-MTHF, respectively. Some values have also been assayed and calculated for 240 mg/m^26R-MTHF.
Twenty-four patients with metastatic colorectal cancer (mCRC) treated with 5-FU plus 60 mg/m^2 LV were drawn at random from the data base and levels of dUrd were determined at t0 and t24 from two treatment cycles for each patient and the mean values and standard deviations for the differences between t24 and t0 were calculated in the same way as for the 6R-MTHF patients. Since LV is a 50:50 mixture of the natural (1-formyl-tetrahydrofolate) and unnatural (d-formyl-tetrahydrofolate) isomers the active isomer constitutes one half of the LV doses given. The molecular weights for LV and 6R-MTHF are very similar and therefore 60 mg of LV may be considered as equimolar with 30 mg of 6R-MTHF.
The differences between all four groups were tested by means of the Friedman two-way analysis of variance and thereafter the difference between the two equimolar groups LV 60 mg/m^2 and 6R-MTHF 30 mg/m^2 was tested by means of the Mann-Whitney U test. P-values less than 0.05 were considered significant.
Plasma dUrd was determined by a method comprising liquid chromatography followed by tandem mass spectrometry broadly summarized as follows. Plasma samples were removed from −80° C. freezer, trichloroacetic acid was added to the plasma, and the samples mixed and centrifuged. The supernatant was filtered in a 10 kDa molecular weight cut-off membrane filter and again centrifuged for 30 min. The solution at the bottom of the tube was then ready for LC-MS/MS analysis. […]

T1 sequence (P04818 2-313 limits assumed): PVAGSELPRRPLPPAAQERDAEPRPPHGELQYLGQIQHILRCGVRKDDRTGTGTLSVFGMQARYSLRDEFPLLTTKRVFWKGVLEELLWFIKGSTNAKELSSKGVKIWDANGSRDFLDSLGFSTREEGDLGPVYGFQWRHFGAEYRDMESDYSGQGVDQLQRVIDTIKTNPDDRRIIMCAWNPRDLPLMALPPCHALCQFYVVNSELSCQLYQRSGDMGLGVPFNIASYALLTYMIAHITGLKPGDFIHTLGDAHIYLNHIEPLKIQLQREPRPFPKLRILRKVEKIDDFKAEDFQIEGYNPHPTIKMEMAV

Structure (SMILES): O=c1[nH]cc(F)c(=O)[nH]1 [5-FU, 5-Fluorouracil]
overall response rate (colorectal cancer; 5-FU alone): 10-15%

Structure (SMILES): Nc1nc2c(c(=O)[nH]1)N1CN(c3ccc(C(=O)N[C@@H](CCC(=O)O)C(=O)O)cc3)C[C@@H]1CN2 (single isomer, unassigned) [(6S)-isomer]
effect on the natural [6R]-isomer as co-substrate for TS (TS): partial competitive inhibitor

Structure (SMILES): Nc1nc(=O)c2c([nH]1)NCC1CN(c3ccc(C(=O)N[C@@H](CCC(=O)[O-])C(=O)[O-])cc3)CN21.[Ca+2] (stereo partly drawn) [CoFactor®, (dl)-5,10,-methylenepteroyl-monoglutamate calcium salt]
response rate (colorectal cancer; Phase II trial, previously untreated metastatic colorectal cancer): 35% | efficacy and safety compared with leucovorin (colorectal cancer; Phase IIb study in colorectal cancer): not demonstrated to be more efficacious than leucovorin | clinical benefit (stable disease or tumor response), share of patients (pancreas cancer): 40%

Structure (SMILES): Nc1nc2c(c(=O)[nH]1)N(C=O)C(CNc1ccc(C(=O)N[C@@H](CCC(=O)O)C(=O)O)cc1)CN2 (some centres unmarked) [LV, 5-formyl tetrahydrofolate]
overall response rates (colorectal cancer; LV added to 5-FU): over 20%

Mean (t24 − t0) plasma dUrd ([1]; 6R-MTHF 30 mg/m2 BSA bolus with 5-FU 500 mg/m2 bolus, 18 cycles): 74.7 pmol/mL | Mean (t24 − t0) plasma dUrd ([1]; 6R-MTHF 60 mg/m2 BSA bolus with 5-FU 500 mg/m2 bolus, 16 cycles): 91.8 pmol/mL | Mean (t24 − t0) plasma dUrd ([1]; 6R-MTHF 240 mg/m2 BSA bolus with 5-FU 500 mg/m2 bolus, 4 cycles): 99.9 pmol/mL | level of dUrd compared with equimolar LV ([1]; [6R]-MTHF 30 mg/m2 vs LV 60 mg/m2, together with 5-FU, p=0.03): significantly higher level of dUrd
Structure (SMILES): Nc1nc2c(c(=O)[nH]1)N1CN(c3ccc(C(=O)N[C@@H](CCC(=O)O)C(=O)O)cc3)C[C@H]1CN2 [6R-MTHF, [6R]-5,10-methylenetetrahydrofolic acid]

Mean (t24 − t0) plasma dUrd ([1]; active dose 30 mg/m2 BSA LLV, given as 60 mg/m2 d,l-LV bolus, with 5-FU 500 mg/m2 bolus, 48 cycles): 48.7 pmol/mL
Structure (SMILES): Nc1nc(=O)c2c([nH]1)NC[C@H](CNc1ccc(C(=O)N[C@@H](CCC(=O)O)C(=O)O)cc1)N2C=O [LLV]
